Key:
[1] = tested on: human airway epithelial cells (HAE); assay type: cell-based; conditions: for Ad-GFP gene transfer at 1-7% tonicities: Ad-GFP MOI=250, apical 2 h, 5 days; for Ad gene transfer: Ad-GFP MOI=250 combined 1:1 with reagent, apical 2 hours, imaged 5 days, LPC 0.1%, EGTA 250 mM, doxorubicin 5 μM, NaCl 3.6%, Infasurf
[2] = Osmolarity and pH of the solutions; assay type: physicochemical
[3] = tested on: human airway epithelial cells (HAE); assay: Transepithelial electrical resistance (TEER) of HAE after apical reagent; assay type: cell-based; conditions: apical 5 minutes; LPC 0.1%, EGTA 250 mM, doxorubicin 5 μM, NaCl 3.6%, Infasurf 35 mg/ml
Procedure: The University of Iowa In Vitro Models and Cell Culture Core cultured and maintained human airway epithelial cells (HAE) as previously described (33). Briefly, following enzymatic disassociation of trachea and bronchus epithelia, the cells were seeded onto collagen-coated, polycarbonate transwell inserts (0.4 μm pore size; surface area=0.33 cm^2; Corning Costar, Cambridge, MA). HAE were submerged in Ultroser G (USG) medium for 24 hours (37° C. and 5% CO2) at which point the apical media is removed to encourage polarization and differentiation at an air-liquid interface. Transepithelial electrical resistance was measured using an Ohmmeter […]
Disrupting the epithelial tight junctions allows Ad5-based viral vectors access to their basolaterally localized coxsackie and adenovirus receptor (CXADR) (12). Unless otherwise specified, these studies use the Ad5 serotype. […] First, reagents were applied to the apical surface of HAE for 5 minutes and then TEER was measured using an ohmmeter. […] In separate cultures, Ad-GFP (MOI=250) in 50 μl of DMEM combined 1:1 with the test reagents was applied to the apical surface for 2 hours. 5 days post-treatment, cells were imaged by fluorescence microscopy.

[4] = tested on: human airway epithelia (HAE); assay: Endosomal acidification inhibitors on NaCl enhanced Ad5-GFP transduction; assay type: cell-based; conditions: pre-treated 2 h with CQ 200 μM or bafilomycin A1 1 μM; Ad5-GFP MOI=250 with NaCl 3.6%
From the text: GFP expression was quantified by flow cytometry 5 days later. […] GFP was quantified 5 days post-transduction.

Compound	Ad-GFP gene transfer at 1-7% tonicities [1]	Osmolarity ([2]; 1% solution)	Osmolarity ([2]; 2% solution)	Osmolarity ([2]; 3% solution)	Osmolarity ([2]; 4% solution)	Osmolarity ([2]; 5% solution)	Osmolarity ([2]; 6% solution)	Osmolarity ([2]; 7% solution)	Ad gene transfer [1]	transepithelial electrical resistance (TEER) [3]	further results
OC[C@@H](O)[C@@H](O)[C@H](O)[C@H](O)CO [mannitol]	did not enhance gene transfer	55 mOsmol/l	110 mOsmol/l	170 mOsmol/l	220 mOsmol/l	270 mOsmol/l	330 mOsmol/l	380 mOsmol/l			
O=C(O)CN(CCOCCOCCN(CC(=O)O)CC(=O)O)CC(=O)O [EGTA]									increased gene transfer	reduced TEER	
COc1cccc2c1C(=O)c1c(O)c3c(c(O)c1C2=O)C[C@@](O)(C(=O)CO)C[C@@H]3O[C@H]1C[C@H](N)[C@H](O)[C@H](C)O1 [doxorubicin]									did not enhance Ad gene transfer	decreased TEER	
lysophosphatidylcholine [LPC]									increased gene transfer	reduced TEER	
O=C([O-])[C@H](O)[C@@H](O)[C@H](O)[C@H](O)CO.[Na+] [NaGluconate, sodium gluconate]											Osmolarity ([2]; 3.6% solution): 120 mOsmol/l
CO/C1=C\C(C)=C\[C@@H](C)[C@@H](O)[C@@H](C)C/C(C)=C/C=C/[C@H](OC)[C@@H]([C@@H](C)[C@@H](O)[C@H](C)[C@@]2(O)C[C@@H](O)[C@H](C)[C@@H](C(C)C)O2)OC1=O [bafilomycin A1]											NaCl enhanced Ad5-GFP transduction after inhibitor [4]: significantly decreased
N-methyl-d-glucamine gluconate [NMDG gluconate]	Dose-dependent increases	342 mOsmol/l	684 mOsmol/l	1027 mOsmol/l	1369 mOsmol/l	1711 mOsmol/l	2053 mOsmol/l	3693 mOsmol/l			
CCN(CC)CCCC(C)Nc1ccnc2cc(Cl)ccc12 (stereo not shown) [chloroquine]											NaCl enhanced Ad5-GFP transduction after inhibitor [4]: significantly decreased
[Cl-].[K+] [KCl, potassium chloride]	Dose-dependent increases	268 mOsmol/l	537 mOsmol/l	805 mOsmol/l	1073 mOsmol/l	1341 mOsmol/l	1610 mOsmol/l	1878 mOsmol/l			Osmolarity ([2]; 3.6% solution): 970 mOsmol/l
